Measurements taken from patent publication US11649236B2, “Polycyclic carbamoylpyridone derivative” (Shionogi & Co., Ltd., priority 2018, dated 2023).

Key:
[1] = system: HIV mutant strain 1 (E138K/G140S/Q148H/N155H); test: Resistance evaluation test (HeLa-CD4 reporter), mutant strain 1; format: cell-based; settings: FC=EC50 of mutant strain/EC50 of wild strain, HeLa-CD4 cells
Experimental: (§1) Serial dilutions of a test sample were prepared in a96-well microplate (50 μL/well). 2.5×10^5 cells/mL of a HeLa-CD4 cell suspension was dispensed at 100 μL/well to the plate containing the test sample. Then, an HIV virus solution (wild strain and mutant strain) was dispensed at 50 μL/well. The plate was mixed with a plate mixer and cultured for 3 days in a CO2 incubator. The culture supernatant in each well was removed by suction. A cell lysis buffer in a reporter assay kit was dispensed at 100 μL/well, and the plate was frozen in a freezer (−80° C.). The plate frozen in a freezer was thawed at room temperature, then mixed with a plate mixer, and centrifuged at 1,200 rpm for 5 minutes. The supernatant of each well was dispensed at 20 μL/well to a 96-well microplate (BLACK). A chemiluminescent reagent in the reporter assay kit was dispensed at 100 μL/well and reacted at room temperature for approximately 1 hour. Then, luminescence intensity was measured using MicroBeta TRILUX. […] FC=EC50 of mutant strain/EC50 of wild strain (Results) FC for the mutant strain 1 (E138K/G140S/Q148H/N155H) and FC for the mutant strain 2 (E92Q/E138T/G140S/Q148H) are shown in the table.

[2] = Clearance evaluation test; format: in vivo; settings: rat, plasma, 1 umol/kg, rats, intravenous 1 μmol/kg
Text: Experimental Material and Method (1) Animals used: rats were used. (2) Rearing conditions: the rats were allowed to freely take solid feed and sterilized tap water. (3) Dose and grouping setting: a predetermined dose was intravenously administered. Groups were set as follows: Intravenous administration: 1 μmol/kg (n=2) (4) Preparation of dosing solution: the test sample was solubilized using a solvent of dimethyl sulfoxide/propylene glycol=1/1 and administered. (5) Administration method: the test sample was administered to the tail vein through a syringe with an injection needle. (6) Evaluation item: blood was collected over time, and the concentration of the compound of the present invention in plasma was measured using LC/MS/MS. (7) Statistical analysis: total body clearance (CLtot) and elimination half-life (t½) were calculated as to change in the concentration of the compound of the present invention in plasma by the moment analysis method.

[3] = system: HIV mutant strain (T97A/E138T/G140S/Q148H); test: Resistance evaluation test (HeLa-CD4 reporter), mutant strain T97A/E138T/G140S/Q148H; format: cell-based; settings: FC=EC50 of mutant strain/EC50 of wild strain; HeLa-CD4 cells
[4] = system: HIV mutant strain 3 (E92Q/E138K/G140S/Q148H); test: Resistance evaluation test (HeLa-CD4 reporter), mutant strain 3; format: cell-based; settings: FC=EC50 of mutant strain/EC50 of wild strain, HeLa-CD4 cells
Experimental: as §1

HIV = test: Anti-HIV activity (MT-4 cells, MTT); format: cell-based; settings: Human immunodeficiency virus 1, MT4, 96 h, cultured 4 days
Procedure, shortened: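 MT-4 cells (2.5×10^5 cells/mL) mixed with serial dilutions of test sample and HIV, cultured 4 days in CO2 incubator. MTT added for 1 h, cells lysed, absorbance read at 560 nm and 690 nm.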

[5] = molecular target: Voltage gated sodium channel (Nav 1.5 channel) (Homo sapiens, UniProt Q14524); settings: pH 7.4
Text: For the purpose of assessing risk of arrhythmogenesis of the compound of the present invention, effects of the compound of the present invention on Na^+ current (INa), which plays an important role in the depolarization process of myocardium, was studied using HEK cells expressing Voltage gated sodium channel (Nav 1.5 channel) encoded by SCN5A gene. A cell is retained at a membrane potential of −100 mV by the whole cell patch clamp method using an automated patch clamp system (QPatch; Sophion Bioscience A/S), then INa induced by depolarization stimulation at −10 mV for 20 milliseconds, was recorded. […] From the obtained INa, an absolute value of the maximum peak current was measured based on the current value at the resting membrane potential using analysis software (QPatch Assay software; Sophion Bioscience A/S). The maximum peak current at the time of the application of the compound of the present invention with respect to the maximum peak current at the time of the application of the vehicle was further calculated to evaluate the influence of the compound of the present invention on INa.

[6] = system: HIV mutant strain 2 (E92Q/E138T/G140S/Q148H); test: Resistance evaluation test (HeLa-CD4 reporter), mutant strain 2; format: cell-based; settings: FC=EC50 of mutant strain/EC50 of wild strain, HeLa-CD4 cells
Experimental: as §1

Metabolic stability test = format: in vitro ADME, human; design: key: % remaining vs amount at 0 min (=100%); settings: compound 0.5 μmol/L, human liver microsomes 0.5 mg protein/mL, NADPH, 37° C., 30 minutes; amount at 0 minutes defined as 100%
Experimental: Commercially available pooled human liver microsomes were reacted with the compound of the present invention for a certain time. A residual rate was calculated by the comparison between the reacted sample and an unreacted sample to evaluate the degree at which the compound of the present invention is metabolized in the liver. A reaction was performed (oxidative reaction) at 37° C. for 0 minutes or 30 minutes in the presence of 1 mmol/L NADPH in 0.2 mL of a buffer (50 mmol/L Tris-HCl pH 7.4, 150 mmol/L potassium chloride, 10 mmol/L magnesium chloride) containing 0.5 mg protein/mL of human liver microsomes. After the reaction, 50 μL of the reaction solution was added to 100 μL of a solution of methanol/acetonitrile=1/1 (v/v) and mixed, and the mixture was centrifuged at 3000 rpm for 15 minutes. The compound of the present invention in the centrifugation supernatant was quantified by LC/MS/MS or solid-phase extraction (SPE)/MS. The amount of the compound of the present invention remaining after the reaction was calculated with the amount of the compound at 0 minutes of the reaction defined as 100%.

Chain of Voltage gated sodium channel (Nav 1.5 channel) (Q14524 whole entry): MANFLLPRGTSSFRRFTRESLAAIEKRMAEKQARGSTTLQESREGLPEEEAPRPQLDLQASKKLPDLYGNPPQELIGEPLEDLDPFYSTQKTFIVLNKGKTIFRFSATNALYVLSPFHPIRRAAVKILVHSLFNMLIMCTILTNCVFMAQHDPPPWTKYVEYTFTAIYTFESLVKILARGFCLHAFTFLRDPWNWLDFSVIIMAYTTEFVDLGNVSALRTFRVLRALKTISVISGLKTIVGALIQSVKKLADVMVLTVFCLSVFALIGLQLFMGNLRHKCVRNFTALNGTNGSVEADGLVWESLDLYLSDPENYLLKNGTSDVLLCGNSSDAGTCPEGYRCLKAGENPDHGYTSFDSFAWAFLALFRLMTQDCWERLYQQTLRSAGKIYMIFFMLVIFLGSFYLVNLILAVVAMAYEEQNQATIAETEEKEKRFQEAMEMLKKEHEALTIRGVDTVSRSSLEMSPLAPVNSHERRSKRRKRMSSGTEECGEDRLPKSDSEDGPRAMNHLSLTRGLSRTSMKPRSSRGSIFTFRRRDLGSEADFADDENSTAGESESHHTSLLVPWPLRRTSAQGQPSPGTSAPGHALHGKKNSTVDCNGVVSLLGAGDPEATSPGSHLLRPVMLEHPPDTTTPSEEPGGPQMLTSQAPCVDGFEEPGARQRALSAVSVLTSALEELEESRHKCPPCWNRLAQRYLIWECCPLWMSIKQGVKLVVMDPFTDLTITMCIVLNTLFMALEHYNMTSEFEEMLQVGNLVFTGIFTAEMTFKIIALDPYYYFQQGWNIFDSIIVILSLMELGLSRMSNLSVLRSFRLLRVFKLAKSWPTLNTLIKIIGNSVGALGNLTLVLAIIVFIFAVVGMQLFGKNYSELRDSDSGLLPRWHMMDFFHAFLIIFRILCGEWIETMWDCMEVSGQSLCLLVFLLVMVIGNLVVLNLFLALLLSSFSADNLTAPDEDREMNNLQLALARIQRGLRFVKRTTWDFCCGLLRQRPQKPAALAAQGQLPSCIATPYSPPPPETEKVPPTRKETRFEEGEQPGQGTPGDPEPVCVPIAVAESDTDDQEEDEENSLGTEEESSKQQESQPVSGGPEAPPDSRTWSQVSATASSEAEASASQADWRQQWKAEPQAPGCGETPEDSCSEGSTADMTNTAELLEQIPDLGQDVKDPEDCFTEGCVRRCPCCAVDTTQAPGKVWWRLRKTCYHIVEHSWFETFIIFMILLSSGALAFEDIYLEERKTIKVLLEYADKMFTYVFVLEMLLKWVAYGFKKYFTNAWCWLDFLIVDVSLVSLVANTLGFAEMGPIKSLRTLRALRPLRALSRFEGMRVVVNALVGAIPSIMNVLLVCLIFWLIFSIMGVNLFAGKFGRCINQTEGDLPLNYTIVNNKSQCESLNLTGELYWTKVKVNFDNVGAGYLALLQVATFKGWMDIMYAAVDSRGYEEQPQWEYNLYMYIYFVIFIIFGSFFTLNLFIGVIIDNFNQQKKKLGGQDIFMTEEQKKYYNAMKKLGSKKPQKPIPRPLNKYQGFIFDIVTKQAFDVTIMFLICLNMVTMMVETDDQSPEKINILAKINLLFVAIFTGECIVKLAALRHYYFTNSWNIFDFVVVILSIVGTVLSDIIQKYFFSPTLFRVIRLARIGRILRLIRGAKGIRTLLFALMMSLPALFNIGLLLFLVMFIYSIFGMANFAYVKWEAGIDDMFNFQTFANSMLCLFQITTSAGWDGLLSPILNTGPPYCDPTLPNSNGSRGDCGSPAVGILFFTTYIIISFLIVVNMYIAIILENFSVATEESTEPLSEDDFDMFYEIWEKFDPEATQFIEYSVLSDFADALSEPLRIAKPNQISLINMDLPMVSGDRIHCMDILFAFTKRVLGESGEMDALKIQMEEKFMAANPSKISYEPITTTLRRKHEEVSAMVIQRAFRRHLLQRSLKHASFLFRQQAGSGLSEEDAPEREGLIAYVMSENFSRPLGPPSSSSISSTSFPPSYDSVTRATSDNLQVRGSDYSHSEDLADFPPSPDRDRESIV

## CN1C(=O)c2c(O)c(=O)c(C(=O)NCc3ccc(F)cc3F)cn2N2CCCC[C@@H]12 [Compound I-015]
[1]
  FC mutant strain 1: 51
[2]; read-out: elimination half-life (t½) (converted)
  half-life: 12.3 h
[2]; read-out: total body clearance (CLtot)
  clearance: 0.111 mL/min/kg
[3]
  FC for the mutant strain (T97A/E138T/G140S/Q148H): 10
[4]
  FC for the mutant strain 3: 7.7
HIV
  EC50: 3.6 nM
[5]
  maximum peak current (INa) with compound with respect to vehicle: 92.1%
[6]
  FC mutant strain 2: 18
Metabolic stability test
  residual rate: 103
